In PMC7351026, “Serum Half-Lives for Short- and Long-Chain Perfluoroalkyl Acids after Ceasing Exposure from Drinking Water Contaminated by Firefighting Foam” (Environmental Health Perspectives, 2020):
Several values for one entry are separate records, joined by “and”; a condition that tells them apart may be missing. Equal values may be shown once.

Test: PFAS levels in serum samples of airport employees (LC/MS/MS)
Conditions: for Serum level in the first samples, median (range) / Relative composition of PFAS in serum, molar concentration basis / Relative composition of PFAS in serum, weight basis / Serum concentration, molar basis / Serum concentration, weight basis: all 26 airport employees; for Relative composition of PFAS in serum, molar concentration basis / Relative composition of PFAS in serum, weight basis: first serum samples; for Serum concentration, molar basis / Serum concentration, weight basis: median of first serum samples; for Serum level, median (range): second to fifth samplings, 17 airport employees
Excerpt: All 26 employees at the airport were invited for a blood sampling between 11 and 14 September 2018 (i.e., within 11 to 14 d after the termination of contaminated drinking-water exposure). Information on age, home address, employment history, working tasks, and sick leave and vacation days in August and September were collected by questionnaire. In addition, data on the number of glasses of water consumed per day, local fish consumption, and history of blood donation and medication were collected. For female employees, questions about menstruation, pregnancy, and duration of breast-feeding were asked.
The PFAS analysis in serum from the first sampling was immediately performed and personal results were reported to the employees. […] These 17 employees submitted four rounds of blood and first morning urine samples in parallel, at 1-month intervals. In total, there were five rounds of serum sampling (started from September) and four rounds of urine sampling (from October). For modeling of elimination, all samples were reanalyzed in a single batch. We obtained 83 serum samples with a median count of 5 (range: 4–5) samples per employee, and 59 urine samples with median of 4 (range: 1–4) samples per employee. Only one employee provided a single urine sample. The study was approved by the Regional Ethical Review Board in Lund, Sweden. All employees provided written informed consent.
Venous whole blood samples were obtained and were centrifuged for 10 min at 1,500×g at room temperature to isolate the serum on site. The serum samples were collected in 6-mL BD Vacutainer® Plus plastic serum tubes without gel (BD). Urine samples were collected in 13-mL polypropylene screw cap tubes (Sarstedt). Serum and urine samples were frozen at −20°C after sampling and transported to Lund using cold chain logistics. Serum and urine samples were stored at −80°C and −20°C , respectively, before analysis.
The serum samples, QC samples, and chemical blanks were prepared in 96-well plates with 1.5-mL flat-bottom glass vials (Biotech solutions). Serum samples were thawed for 1–2 h and mixed on a vortex shaker for approximately 10 s two times. Once after all samples were thawed and a second time before pipetting the serum to the plate. Before pipetting, the tip was pre-wetted several times, drawing a volume into the tip and dispensing it back into the tube. Sample preparation procedures for serum samples consisted of 25μL serum mixed with 25μL water, 25μL methanol, 25μL isotopically labeled internal standards in 50% acetonitrile (see Table S1), and 100μL acetonitrile. Thereafter, samples were mixed vigorous by shaking for 30 min and centrifuged at 2,600×g for 10 min at room temperature. The supernatant ( 0.2mL ) was transferred to 96-well plates with 0.5-mL conical glass vials (MicroLiter Analytical Supplies) and again centrifuged at 3,000×g for 10 min before analysis. The QC samples and chemical blanks were prepared following the same procedure as the serum samples. The calibration standards were prepared in FBS the same way as the samples, except for the addition of diluted reference standards of all analyzed compounds in 25μL of the methanol solution.
Aliquots of 4μL of the sample were analyzed using LC/MS/MS. For the analysis, a C18 column ( 4μm , 2.1mm i.d.×50mm , Genesis Lightning) was used prior to the injector to filter the mobile phases. The analytical column was an Aquity BEH ( 1.7μm , 2.1mm i.d.×100mm Waters). The mobile phases (A and B) were A: 5 mM ammonium acetate in water:methanol (50:50); and B: methanol. The mobile phase was kept at 0% B for 2.5 min after injection. A gradient was then applied over 11 min to 90% B, where it was then kept for 1.5 min. The column was then conditioned at 0% B for 2 min.

[1] = 1st sampling (September 2018), count 17
[2] = 2nd sampling (October 2018), count 17
[3] = 3rd sampling (November, 2018), count 17
[4] = 4th sampling (December 2018), count 16
[5] = 5th sampling (January 2019), count 16
[6] = employees participated in first blood sampling and repeated blood and urine sampling, N=17
[7] = employees participated in first blood sampling only, N=9, 11-14 d after end of exposure

Row | Compound | Serum PFAS level, 25 percentile [1] | Serum PFAS level, 75 percentile [1] | Serum PFAS level, Max [1] | Serum PFAS level, Median [1] | Serum PFAS level, Min [1] | Serum PFAS level, 25 percentile [2] | Serum PFAS level, 75 percentile [2] | Serum PFAS level, Max [2] | Serum PFAS level, Median [2] | Serum PFAS level, Min [2] | Serum PFAS level, 25 percentile [3] | Serum PFAS level, 75 percentile [3] | Serum PFAS level, Max [3] | Serum PFAS level, Median [3] | Serum PFAS level, Min [3] | Serum PFAS level, 25 percentile [4] | Serum PFAS level, 75 percentile [4] | Serum PFAS level, Max [4] | Serum PFAS level, Median [4] | Serum PFAS level, Min [4] | other results
1 | O=C(O)C(F)(F)C(F)(F)C(F)(F)C(F)(F)C(F)(F)F [PFHxA, perfluorohexanoic acid] | 0.24 | 0.48 | 0.92 | 0.37 | 0.16 | 0.26 | 0.51 | 1.2 | 0.31 | 0.14 | 0.27 | 0.56 | 1.4 | 0.34 | 0.13 | 0.22 | 0.46 | 0.87 | 0.30 | 0.08 | Serum PFAS level, 25 percentile [5]: 0.21; Serum PFAS level, 75 percentile [5]: 0.52; Serum PFAS level, Max [5]: 1.2; Serum PFAS level, Median [5]: 0.33; Serum PFAS level, Min [5]: 0.11; Serum level in the first samples, median (range): 0.38 (0.16–1.1) ng/mL; PFAS in first serum sample, median (range) [6]: 0.37 (0.16–0.92) ng/mL; PFAS in first serum sample, median (range) [7]: 0.38 (0.23–1.1) ng/mL; Initial serum PFAS level, max (females (N=7)): 0.54 ng/mL; Initial serum PFAS level, median (females (N=7)): 0.24 ng/mL; Initial serum PFAS level, min (females (N=7)): 0.19 ng/mL; Relative composition of PFAS in serum, molar concentration basis: 0.4%; Relative composition of PFAS in serum, weight basis: 0.3%; Initial serum PFAS level, Max (males (N=19)): 1.1 ng/mL; Initial serum PFAS level, Min (males (N=19)): 0.16 ng/mL; Initial serum PFAS level, median (males (N=19)): 0.42 ng/mL; Serum concentration, molar basis: 0.0012; Serum concentration, weight basis: 0.38
2 | O=S(=O)(O)C(F)(F)C(F)(F)C(F)(F)C(F)(F)C(F)(F)C(F)(F)F [PFHxS, perfluorohexane sulfonic acid] | 63 | 155 | 402 | 133 | 21 | 57 | 144 | 363 | 122 | 18 | 57 | 150 | 392 | 119 | 20 | 50 | 146 | 381 | 109 | 17 | Serum PFAS level, 25 percentile [5]: 64; Serum PFAS level, 75 percentile [5]: 153; Serum PFAS level, Max [5]: 399; Serum PFAS level, Median [5]: 117; Serum PFAS level, Min [5]: 42; Serum level in the first samples, median (range): 76 (17–402) ng/mL; PFAS in first serum sample, median (range) [6]: 133 (21–402) ng/mL; PFAS in first serum sample, median (range) [7]: 60 (17–85) ng/mL; Initial serum PFAS level, max (females (N=7)): 183 ng/mL; Initial serum PFAS level, median (females (N=7)): 74 ng/mL; Initial serum PFAS level, min (females (N=7)): 21 ng/mL; Relative composition of PFAS in serum, molar concentration basis: 70.4% and 70%; Relative composition of PFAS in serum, weight basis: 68.9%; Initial serum PFAS level, Max (males (N=19)): 402 ng/mL; Initial serum PFAS level, Min (males (N=19)): 17 ng/mL; Initial serum PFAS level, median (males (N=19)): 78 ng/mL; Serum concentration, molar basis: 0.19; Serum concentration, weight basis: 76; Serum level, median (range): 118 (17–399) ng/mL
3 | O=S(=O)(O)C(F)(F)C(F)(F)C(F)(F)C(F)(F)C(F)(F)F [PFPeS, perfluoropentane sulfonic acid] | 5.8 | 13 | 17 | 7.6 | 3.6 | 4.9 | 11 | 14 | 6.8 | 2.3 | 4.4 | 11 | 14 | 6.3 | 2.1 | 4.0 | 11 | 14 | 6.5 | 1.8 | Serum PFAS level, 25 percentile [5]: 4.4; Serum PFAS level, 75 percentile [5]: 9.9; Serum PFAS level, Max [5]: 13; Serum PFAS level, Median [5]: 6.2; Serum PFAS level, Min [5]: 1.9; Serum level in the first samples, median (range): 6.9 (1.4–17) ng/mL; PFAS in first serum sample, median (range) [6]: 7.6 (3.6–17) ng/mL; PFAS in first serum sample, median (range) [7]: 3.5 (1.4–11) ng/mL; Serum level, median (exposed employees 5 months after exposure ceased): 6.22 ng/mL; Initial serum PFAS level, max (females (N=7)): 15 ng/mL; Initial serum PFAS level, median (females (N=7)): 5.1 ng/mL; Initial serum PFAS level, min (females (N=7)): 3.5 ng/mL; Relative composition of PFAS in serum, molar concentration basis: 7.3%; Relative composition of PFAS in serum, weight basis: 6.3%; Initial serum PFAS level, Max (males (N=19)): 17 ng/mL; Initial serum PFAS level, Min (males (N=19)): 1.4 ng/mL; Initial serum PFAS level, median (males (N=19)): 7.2 ng/mL; Serum concentration, molar basis: 0.020; Serum concentration, weight basis: 6.9; Serum level, median (range): 6.5 (1.8–14) ng/mL
4 | Perfluoro-2/6-methylheptanesulfonate [2/6m-PFOS] | 1.4 | 3.6 | 7.5 | 2.6 | 1.0 | 1.5 | 2.8 | 7.2 | 2.2 | 0.97 | 1.3 | 3.5 | 8.1 | 2.3 | 0.66 | 0.96 | 2.9 | 7.1 | 1.9 | 0.57 | Serum PFAS level, 25 percentile [5]: 1.2; Serum PFAS level, 75 percentile [5]: 2.7; Serum PFAS level, Max [5]: 7.0; Serum PFAS level, Median [5]: 2.1; Serum PFAS level, Min [5]: 0.83; PFAS in first serum sample, median (range) [6]: 2.6 (1.0–7.5) ng/mL; PFAS in first serum sample, median (range) [7]: 1.8 (0.84–3.2) ng/mL; Initial serum PFAS level, max (females (N=7)): 2.8 ng/mL; Initial serum PFAS level, median (females (N=7)): 1.4 ng/mL; Initial serum PFAS level, min (females (N=7)): 1.0 ng/mL; Initial serum PFAS level, Max (males (N=19)): 7.5 ng/mL; Initial serum PFAS level, Min (males (N=19)): 0.84 ng/mL; Initial serum PFAS level, median (males (N=19)): 2.5 ng/mL; Serum level, median (range): 2.1 (0.57–8.1) ng/mL
